According to ChEMBL document CHEMBL1138792, “Successful virtual screening for a submicromolar antagonist of the neurokinin-1 receptor based on a ligand-supported homology model” (J Med Chem, 2004):

Each compound was assayed against Substance-P receptor (Homo sapiens, UniProt P25103) (assay: Inhibition of substance P binding to Tachykinin receptor 1 in Chinese hamster ovary cells). Conditions: not given.
Assay type: cell-based

Substance-P receptor, sequence (P25103 whole entry): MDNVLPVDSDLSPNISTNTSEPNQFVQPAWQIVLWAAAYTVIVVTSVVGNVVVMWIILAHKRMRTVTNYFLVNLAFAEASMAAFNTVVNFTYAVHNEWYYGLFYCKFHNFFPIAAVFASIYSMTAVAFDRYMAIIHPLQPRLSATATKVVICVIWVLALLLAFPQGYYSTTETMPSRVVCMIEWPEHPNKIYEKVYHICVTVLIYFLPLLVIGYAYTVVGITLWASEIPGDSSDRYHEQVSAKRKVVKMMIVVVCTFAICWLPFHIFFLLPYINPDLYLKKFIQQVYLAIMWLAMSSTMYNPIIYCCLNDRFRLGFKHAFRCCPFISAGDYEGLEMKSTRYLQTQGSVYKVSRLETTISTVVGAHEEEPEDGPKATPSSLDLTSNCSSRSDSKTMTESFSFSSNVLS

| IC50 [nM] | SMILES |
| --- | --- |
| 250 | O=C(CSc1nnc(-c2ccncc2)n1-c1ccccc1)Nc1cccc(Cl)c1 |
| > 10000 | N[C@H](Cc1c[nH]c2ccccc12)C(=O)OCc1ccccc1 |
| 400 | NC(COCc1ccccc1)C(c1ccccc1)c1ccccc1 (centres undefined) |
| 1 | FC(F)(F)c1cc(COCC2(c3ccccc3)CCNCC2)cc(C(F)(F)F)c1 |
| 67 | CC(=O)NC(Cc1c[nH]c2ccccc12)C(=O)OCc1cc(C)cc(C)c1 (centres undefined) |
| 1530 | Cc1cc(C)cc(COC(=O)[C@H](N)Cc2c[nH]c3ccccc23)c1 |
| 0.06 | COc1ccc(-n2cnnn2)cc1CN[C@H]1CCCN[C@H]1c1ccccc1 |
| 0.53 | NC(=O)CNC(COCc1cc(C(F)(F)F)cc(C(F)(F)F)c1)C(c1ccccc1)c1ccccc1 (stereo in doubt; 5) |

Same assay, conditions: ovary

| IC50 [nM] | SMILES |
| --- | --- |
| 0.53 | NC(=O)CNC(COCc1cc(C(F)(F)F)cc(C(F)(F)F)c1)C(c1ccccc1)c1ccccc1 (stereo in doubt; 16) |
